Test results reported in the NIST ThermoML archive (doi:10.1021/je025657+).
“And” between values parts separate entries of the source, which are not always exact repeats. Equal entries are not always repeated.

Conditions: for vapor or sublimation pressure: Closed cell (Static) method

COC(F)(F)F [trifluoromethoxymethane]
Gas, Burnett expansion method
Conditions | mass density [kg/m3]
320 K, 421.5 kPa | 17.3
320 K, 570.4 kPa | 24.28
320 K, 604.9 kPa | 25.98
320 K, 802.9 kPa | 36.45
320 K, 847.1 kPa | 38.98
330 K, 137.5 kPa | 5.133
330 K, 188.9 kPa | 7.099
330 K, 203.7 kPa | 7.696
330 K, 280.6 kPa | 10.75
330 K, 300.2 kPa | 11.55
330 K, 410.7 kPa | 16.13
330 K, 437.5 kPa | 17.29
330 K, 594.3 kPa | 24.27
330 K, 630.6 kPa | 25.96
330 K, 841.9 kPa | 36.48
330 K, 889 kPa | 38.98
340 K, 141.7 kPa | 5.126
340 K, 195.8 kPa | 7.136
340 K, 210.4 kPa | 7.694
340 K, 310.5 kPa | 11.54
340 K, 425.6 kPa | 16.13
340 K, 453.5 kPa | 17.28
340 K, 655.6 kPa | 25.94
340 K, 879.5 kPa | 36.45
340 K, 929.4 kPa | 38.95
340 K, 1216.9 kPa | 54.78
340 K, 1278.5 kPa | 58.56
340 K, 1605.8 kPa | 82.06
350 K, 146.2 kPa | 5.127
350 K, 202.9 kPa | 7.174
350 K, 217 kPa | 7.688
350 K, 299.5 kPa | 10.74
350 K, 320.6 kPa | 11.53
350 K, 469.2 kPa | 17.27
350 K, 640.8 kPa | 24.25
350 K, 680.3 kPa | 25.92
350 K, 969 kPa | 38.92
350 K, 1277.1 kPa | 54.75
350 K, 1343.5 kPa | 58.5
350 K, 1709.6 kPa | 82.31
350 K, 1782.8 kPa | 87.93
360 K, 150.4 kPa | 5.122
360 K, 208.1 kPa | 7.139
360 K, 223.5 kPa | 7.683
360 K, 330.6 kPa | 11.52
360 K, 455 kPa | 16.13
360 K, 484.7 kPa | 17.25
360 K, 704.6 kPa | 25.9
360 K, 952.6 kPa | 36.41
360 K, 1007.9 kPa | 38.88
360 K, 1335.8 kPa | 54.71
360 K, 1406.7 kPa | 58.43
360 K, 1807.1 kPa | 82.26
360 K, 1888.4 kPa | 87.85
360 K, 2309 kPa | 123.6
360 K, 2385.4 kPa | 132
370 K, 154.7 kPa | 5.117
370 K, 215.6 kPa | 7.182
370 K, 230 kPa | 7.677
370 K, 318.3 kPa | 10.73
370 K, 340.6 kPa | 11.52
370 K, 500.1 kPa | 17.24
370 K, 686.1 kPa | 24.23
370 K, 728.8 kPa | 25.88
370 K, 1046.2 kPa | 38.85
370 K, 1393.4 kPa | 54.67
370 K, 1468.6 kPa | 58.37
370 K, 1901.8 kPa | 82.19
370 K, 1990.6 kPa | 87.72
370 K, 2469.3 kPa | 123.6
370 K, 2559 kPa | 132
370 K, 2970.3 kPa | 185.3
370 K, 3031.6 kPa | 197.4
380 K, 147.8 kPa | 4.751
380 K, 158.9 kPa | 5.114
380 K, 220.5 kPa | 7.14
380 K, 236.5 kPa | 7.671
380 K, 327.6 kPa | 10.73
380 K, 350.5 kPa | 11.51
380 K, 483.9 kPa | 16.12
380 K, 515.4 kPa | 17.23
380 K, 708.4 kPa | 24.22
380 K, 752.6 kPa | 25.86
380 K, 1023.5 kPa | 36.37
380 K, 1084 kPa | 38.82
380 K, 1450 kPa | 54.63
380 K, 1529.5 kPa | 58.32
380 K, 1994.4 kPa | 82.12
380 K, 2092.4 kPa | 87.73
380 K, 2624.1 kPa | 123.5
380 K, 2726.4 kPa | 131.8
380 K, 3233.6 kPa | 185.9
380 K, 3316.9 kPa | 198.3
380 K, 3647 kPa | 276.7
380 K, 3686.3 kPa | 294.2
380 K, 3776.4 kPa | 381.1
380 K, 3786.4 kPa | 439.7

Conditions | mass density [kg/m3]
320 K, 449.1 kPa, Gas | 18.62
320 K, 634.7 kPa, Gas | 27.54
320 K, 968.5 kPa, Gas | 46.37
320 K, 1046.3 kPa, Liquid | 1013.52
320 K, 1081.4 kPa, Liquid | 1013.85
320 K, 1117.7 kPa, Liquid | 1014.21
320 K, 1512.4 kPa, Liquid | 1017.85
320 K, 1515.2 kPa, Liquid | 1018.55
320 K, 2029.1 kPa, Liquid | 1023.1
320 K, 2036.4 kPa, Liquid | 1022.49
320 K, 2520.5 kPa, Liquid | 1026.61
320 K, 2529.1 kPa, Liquid | 1027.35
320 K, 3012.2 kPa, Liquid | 1031.29
320 K, 3050.4 kPa, Liquid | 1030.92
320 K, 3512.7 kPa, Liquid | 1035.21
320 K, 3595.2 kPa, Liquid | 1035.17
320 K, 4030.7 kPa, Liquid | 1039.11
320 K, 4131.4 kPa, Liquid | 1039.19
320 K, 4518.5 kPa, Liquid | 1042.67
320 K, 4616.1 kPa, Liquid | 1042.69
320 K, 5039.6 kPa, Liquid | 1046.35
320 K, 5136.9 kPa, Liquid | 1046.33
320 K, 5518 kPa, Liquid | 1049.62
320 K, 5652.1 kPa, Liquid | 1049.82
320 K, 6055.9 kPa, Liquid | 1053.18
320 K, 6201.4 kPa, Liquid | 1053.41
320 K, 6522.4 kPa, Liquid | 1056.19
320 K, 6721.8 kPa, Liquid | 1056.72
320 K, 6877.8 kPa, Liquid | 1058.42
320 K, 7175.8 kPa, Liquid | 1059.52
330 K, 72.1 kPa, Gas | 2.7
330 K, 106.1 kPa, Gas | 3.97
330 K, 155.7 kPa, Gas | 5.88
330 K, 227.6 kPa, Gas | 8.7
330 K, 330.5 kPa, Gas | 12.87
330 K, 475.1 kPa, Gas | 19.02
330 K, 674.2 kPa, Gas | 28.13
330 K, 936.5 kPa, Gas | 41.69
330 K, 1364.9 kPa, Liquid | 972.53
330 K, 1414.6 kPa, Liquid | 973.15
330 K, 1458.1 kPa, Liquid | 973.66
330 K, 2087 kPa, Liquid | 981.1
330 K, 2555.2 kPa, Liquid | 986.24
330 K, 3114.9 kPa, Liquid | 992.08
330 K, 3553.8 kPa, Liquid | 996.38
330 K, 4105.6 kPa, Liquid | 1001.58
330 K, 4643.4 kPa, Liquid | 1006.39
330 K, 5117 kPa, Liquid | 1010.47
330 K, 5639.1 kPa, Liquid | 1014.76
330 K, 6168.6 kPa, Liquid | 1018.96
330 K, 6739.6 kPa, Liquid | 1023.31
330 K, 7155.4 kPa, Liquid | 1026.38
340 K, 1691.6 kPa, Liquid | 925.88
340 K, 1704.5 kPa, Liquid | 926.14
340 K, 1776.3 kPa, Liquid | 927.36
340 K, 2059.3 kPa, Liquid | 932.03
340 K, 2582.2 kPa, Liquid | 940.1
340 K, 3081.7 kPa, Liquid | 947.17
340 K, 3596.1 kPa, Liquid | 953.91
340 K, 4130.8 kPa, Liquid | 960.48
340 K, 4614 kPa, Liquid | 966.04
340 K, 5146.7 kPa, Liquid | 971.84
340 K, 5642.7 kPa, Liquid | 976.95
340 K, 6163.1 kPa, Liquid | 982.05
340 K, 6711.6 kPa, Liquid | 987.19
340 K, 7112.6 kPa, Liquid | 990.78
350 K, 2091.1 kPa, Liquid | 872.23
350 K, 2104.3 kPa, Liquid | 872.59
350 K, 2141.2 kPa, Liquid | 873.54
350 K, 2548.5 kPa, Liquid | 883.49
350 K, 3078 kPa, Liquid | 894.77
350 K, 3561.7 kPa, Liquid | 903.94
350 K, 4061.4 kPa, Liquid | 912.5
350 K, 4604.4 kPa, Liquid | 920.96
350 K, 5110.9 kPa, Liquid | 928.26
350 K, 5614.7 kPa, Liquid | 935
350 K, 6145.6 kPa, Liquid | 941.66
350 K, 6708.6 kPa, Liquid | 948.27
350 K, 7180.7 kPa, Liquid | 953.51
360 K, 2566.6 kPa, Liquid | 806.04
360 K, 2595.3 kPa, Liquid | 807.47
360 K, 2674 kPa, Liquid | 811
360 K, 3046.9 kPa, Liquid | 825.94
360 K, 3567.7 kPa, Liquid | 842.69
360 K, 4099.1 kPa, Liquid | 856.85
360 K, 4614.4 kPa, Liquid | 868.64
360 K, 5110 kPa, Liquid | 878.67
360 K, 5611.7 kPa, Liquid | 887.84
360 K, 6201.7 kPa, Liquid | 897.63
360 K, 6215.7 kPa, Liquid | 897.87
360 K, 6705.8 kPa, Liquid | 905.3
360 K, 7100.8 kPa, Liquid | 910.94
370 K, 3130.2 kPa, Liquid | 712.6
370 K, 3147.8 kPa, Liquid | 715.08
370 K, 3586 kPa, Liquid | 754.94
370 K, 4068.1 kPa, Liquid | 781.44
370 K, 4642.5 kPa, Liquid | 804.25
370 K, 5159.1 kPa, Liquid | 820.53
370 K, 5641.4 kPa, Liquid | 833.56
370 K, 6176.7 kPa, Liquid | 846.09
370 K, 6712.7 kPa, Liquid | 857.24
370 K, 7155.1 kPa, Liquid | 865.58
380 K, 345.8 kPa, Gas | 11.4
380 K, 411.6 kPa, Gas | 13.64
380 K, 637.2 kPa, Gas | 21.72
380 K, 1069 kPa, Gas | 38.43
380 K, 1190.9 kPa, Gas | 43.52
380 K, 1736.8 kPa, Gas | 68.74
380 K, 2282.2 kPa, Gas | 99.68
380 K, 2913 kPa, Gas | 148.72
380 K, 3383.7 kPa, Gas | 207.93
380 K, 3672.6 kPa, Gas | 287.87
380 K, 3791.1 kPa, Gas | 430.78
380 K, 3807.7 kPa, Liquid | 489.63
380 K, 4003.4 kPa, Liquid | 629
380 K, 4596.7 kPa, Liquid | 707.34
380 K, 5159.5 kPa, Liquid | 743.66
380 K, 5653.6 kPa, Liquid | 766.09
380 K, 6175.8 kPa, Liquid | 785.18
380 K, 6672.5 kPa, Liquid | 800.32
380 K, 7138.9 kPa, Liquid | 812.7

Liquid
Conditions | mass density | vapor or sublimation pressure
320 K | 1013.47 kg/m3 and 1014.09 kg/m3 | 1038.1 kPa and 1038.5 kPa and 1038.4 kPa
325 K | – | 1175.7 kPa
330 K | 972.09 kg/m3 and 973.36 kg/m3 and 973.37 kg/m3 | 1325.7 kPa and 1325.6 kPa
335 K | – | 1489.7 kPa
340 K | 925.57 kg/m3 | 1668.8 kPa and 1668.5 kPa and 1670.2 kPa
345 K | – | 1863.6 kPa
350 K | 871.95 kg/m3 | 2074.9 kPa and 2075 kPa and 2071.7 kPa
355 K | – | 2304.3 kPa
360 K | 805.64 kg/m3 | 2553.1 kPa and 2553.8 kPa and 2554.9 kPa
365 K | – | 2823.3 kPa
370 K | 711.78 kg/m3 | 3116.4 kPa and 3117.3 kPa and 3117.1 kPa
375 K | – | 3435.7 kPa
